Assays:
[1] = test system: circulating peripheral blood monocytes, lymphocytes, neutrophils and platelets; assay: Cytotoxicity of CdA in vivo: blood cell counts in cutaneous T-cell lymphoma patients; parameters: species or system human
Protocol: FIG. 1 is a graph showing the results of a study of the cytotoxicity of 2-chlorodeoxyadenosine (CdA) toward three cell types in the peripheral blood of eight cutaneous T-cell lymphoma patients. A continuous intravenous infusion of CdA (0.1 mg/ml in isotonic saline) was administered to each patients at a dosage of 0.1 mg/kg per day, with the patients receiving therapy for seven days. Blood samples were removed daily and cell counts performed, with averaged values being shown. Graph symbols are as follows: open squares indicate the monocytes; plus signs indicate neutrophils (X10^-1); and closed diamonds indicate lymphocytes. The cell concentration (ordinate) is plotted for the day of treatment (abscissa) on which it is measured.
The effect of 2-chlorodeoxyadenosine (CdA) administration upon the level of circulating peripheral blood monocytes, lymphocytes, neutrophils and platelets was determined as follows.
Eight cutaneous T-cell lymphoma patients were administered continuous intravenous infusion of a composition containing 2-chlorodeoxyadenosine at a dosage of 0.1 mg/kg of body weight per day in isotonic saline. Blood samples were obtained daily and the number of viable cells present were enumerated daily for seven days after treatment.

[2] = test system: DNA strand breaks in human monocytes; assay: DNA damage in monocytes, fluorescent assay for DNA unwinding in alkaline solution; type: cell-based; conditions: for additional residual double-stranded DNA (repair) after CdA removal: over the next four hours
Protocol: FIG. 4 is a graph of the dose- and time-dependence for CdA in inducing DNA strand breaks in monocytes in vitro.
Monocytes were plated as discussed previously, and were then contacted with compositions containing various concentrations of CdA. The amount of DNA damage in monocytes exposed to CdA was determined by the fluorescent assay for DNA unwinding in alkaline solution described by Birnboim and Jevcak (1981) Cancer Res., 41:1889-1892, modified to accommodate lower cell numbers (Thierry et al. (1985) Radiation Res., 102:347-358).
The unwinding rate of DNA in alkaline solution at 15 degrees C. is proportional to the number of DNA strand breaks or alkali-labile sites. The ethidium bromide fluorescence of residual duplex DNA in samples exposed to pH 12.8 for one hour was compared to the fluorescence of a DNA aliquot that was not exposed to alkali. The percent residual double-stranded DNA at 1 hour was taken as a measure of the DNA damage in the sample. The results are illustrated in FIG. 4.
The repair of monocyte DNA damage caused by CdA was compared to the damage caused by gamma irradiation. Monocytes were pre-exposed to 0.1 or 1.0 μM CdA for four hours. At the end of this time, approximately 60 percent residual double-stranded DNA was present in the cells. The CdA was removed, and the amount of residual double-stranded DNA was calculated over the next four hours. Any increase in doublestranded DNA represents ongoing repair mechanisms.

[3] = test system: RNA synthesis in monocytes; assay: Monocyte RNA synthesis, 3H-uridine incorporation; type: cell-based, human; conditions: 1 nM CdA; detectable after the first hour of culture
Protocol: FIG. 5 is a graph showing the biochemical effects induced in human monocytes in vitro by exposure to […] CdA over a period of 16 hours. The effects of CdA exposure upon monocyte viability (open squares), NAD content (closed squares), RNA synthesis (open circles) and DNA strand breaks (ds-DNA; closed circles) are illustrated.
Monocyte RNA synthesis following CdA exposure was studied by measuring the incorporation of ^3 H-uridine. Monocytes were exposed to ^3 H-uridine (20 μCi/10^6 cells) during the final 1 hour of CdA (1 nM) exposure. Radioactivity measured was contained in trichloroacetic acid precipitates collected onto cellulose acetate filters and measured by liquid scintillation counting.

interleukin-1β (IL-1β) = assay: Plasma IL-1beta in a rheumatoid arthritis patient, ELISA; type: in vivo, human; conditions: each last infusion day compared to pretreatment values; one patient; preliminary
Text: Preliminary studies have also measured the concentration of interleukin-1β (IL-1β) in cryopreserved plasma samples from one of the rheumatoid arthritis patients. IL-1β is a lymphokine released by antigen-stimulated macrophages that promotes the formation of interleukin-2 in antigen-activated cytotoxic T cells. IL-2 promotes mitosis in activated cytotoxic T cells.
This patient received CdA, as before, in four treatments over a time period of almost 100 days. Each treatment was by 5-day continuous infusion.
IL-1β concentrations were measured using a commercially available ELISA kit (Cistron).

CEM, wild type = assay: Direct comparative cytotoxicity assay (Table II), CEM wild type; type: cell-based, human; conditions: Homo sapiens, 120 h, read-out: ID50: concentration that produced 50 percent reduction in all numbers after five days
Text: (§1) The two compounds, CdA and CAFdA, were also compared for in vitro activity against another group of human cell lines in a direct comparative assay.
(§2) ^1 Concentration that produced 50 percent reduction in all numbers
^2 CEM cells are T lymphoblasts; DHL9 cells are lymphoblasts.

[4] = test system: Peripheral blood lymphocytes; assay: Direct comparative cytotoxicity assay (Table II), peripheral blood lymphocytes; type: cell-based, human; conditions: Homo sapiens, Lymphocyte, 120 h, read-out: ID50: concentration that produced 50 percent reduction in all numbers after five days
Text: as §1, §2

[5] = test system: delayed-type hypersensitivity (DTH) response; assay: Delayed-type hypersensitivity to ovalbumin in guinea pigs, oral and intraperitoneal treatment; type: in vivo, guinea pig; conditions: dexamethasone 5 mg/kg, CdA or CAFdA 1 mg/kg, 24 and 48 hours, p<0.01
Protocol: (§3) Delayed-type hypersensitivity (DTH) is a cell-mediated immune response that typically takes longer than 12 hours to develop. In the guinea pig, a DTH reaction to an antigen can be established by first immunizing the animal with the antigen in an adjuvant such as Freund's complete adjuvant. Subsequent intradermal injection of the antigen causes no change for at least 10 hours, after which there is a gradual increase in erythema and swelling in response to antigen injection. This response peaks about at about 24 hours after challenge, then gradually subsides.
Histologically, the inflammatory response is characterized by intense inundation of the site with mononuclear cells, of which about half are lymphocytes and the other half monocytes. DTH is therefore an indicator of a monocyte-mediated immune reaction.
In one study, guinea pigs were sensitized to ovalbumin in adjuvant. The animals were then treated either orally or intraperitoneally with saline (control), dexamethasone (5 mg/kg), CdA (1 mg/kg) or CAFdA (1 mg/kg). The animals were then injected with ovalbumin intradermally to elicit the DTH response. The mean area of the swelling size was measured for each animal (nine or ten animals were treated for each protocol).

[6] = test system: delayed-type hypersensitivity (DTH) reaction; assay: Delayed-type hypersensitivity to ovalbumin in guinea pigs, different dosages of CdA; type: in vivo, guinea pig; conditions: for swelling compared to control saline treated animals: 24 and 48 hours post-challenge, p<0.01
Protocol: as §3
In another study, the effects of different dosages of CdA on the DTH reaction were examined. Guinea pigs sensitized to ovalbumin were treated with saline (control), dexamethasone (5 mg/kg), and CdA at 1 mg/kg or 0.1 mg/kg. Three days after treatment, the animals were challenged with ovalbumin intradermally. The areas of the skin lesions were measured at 6, 24, and 48 hours after challenge.

Nc1nc(Cl)nc2c1ncn2[C@H]1C[C@H](O)[C@@H](CO)O1 [CdA, 2-chloro-9,1'-beta-D-2'-deoxyribosyladenine]
time for monocyte numbers to return to approximately pre-administration values ([1]; after cessation of the CdA administration): within about two weeks | decrease in number of circulating lymphocytes ([1]; by the end of period of infusion, 0.1 mg/kg per day): 30% | patients whose monocytes disappeared completely from the circulation ([1]; by the seventh treatment day, 0.1 mg/kg per day): four of the eight | mean level of monocyte decrease ([1]; day 7, 0.1 mg/kg per day continuous intravenous infusion, eight patients): 80% | number of circulating neutrophils ([1]; seven days, 0.1 mg/kg per day): no significant decrease | platelet and hemoglobin levels ([1]; seven days, 0.1 mg/kg per day): constant | time to appearance of DNA breaks ([2]; 10 nM CdA): ≤ 2 h | additional residual double-stranded DNA (repair) after CdA removal ([2]; 0.1 μM CdA): 10% | additional residual double-stranded DNA (repair) after CdA removal ([2]; 1.0 μM CdA): no increase | residual double-stranded DNA ([2]; pre-exposed to 0.1 or 1.0 μM CdA for four hours): approximately 60% | RNA synthesis [3]: progressive reduction in RNA synthesis | plasma IL-1β level (interleukin-1β (IL-1β)): significantly lower | IC50 (CEM, wild type): 0.021 µM | IC50 [4]: 0.015 µM | swelling after ovalbumin challenge compared to saline control ([5]; intraperitoneal): significant inhibition of swelling | swelling after ovalbumin challenge compared to saline control ([5]; oral): ineffective | numerical values of the areas of swelling relative to dexamethasone ([6]; 0.1 and 1.0 mg/kg CdA, substantially the same): slightly less than the value obtained with dexamethasone | swelling compared to control saline treated animals ([6]; CdA 0.1 mg/kg): effective at inhibiting swelling | swelling compared to control saline treated animals ([6]; CdA 1 mg/kg): effective at inhibiting swelling
